# Assay results as given in patent publication US20240197677A1 (VIVIER CANADA INC., priority 2016, published 2024).
# Assays:
# [1] = cited from earlier work
# [2] = test system: EpiDermFT™ (EFT-400) human in vitro tissue model
# Description: EFT-400 tissues were treated with test compound every 48 hours for 4, 7 and 10 days.
# Epidermal thickness was assessed by measuring 10 random regions of the Hematoxylin and Eosin (H&E) stained tissue sections using OlyVIA™ software.
structure (smiles),measurement,setting,value
"O=C1O[C@H]([C@@H](O)CO)C(O)=C1O [Vitamin C, L-ascorbic acid, reference compound]",pKa,[1],around 4.17
"Cl.Cl.NCCCCN [putrescine, 1,4-Diaminobutane dihydrochloride]",pKa,[1],10.51
same,Thickness of H&E stained tissue sections (FIGS. 1A-F),[2]; 0.1% Putrescine for 4 days,increased thickness
same,"Epidermis Thickness, Tissue1, Av.","[2]; 0.1% Test Article, EFT-400 Tissue1, average of 10 regions",113.846 μm
same,"Epidermis Thickness, Tissue2, Av.","[2]; 0.1% Test Article, EFT-400 Tissue2, average of 10 regions",117.160 μm
same,"Epidermis Thickness, Tissue3, Av.","[2]; 0.1% Test Article, EFT-400 Tissue3, average of 10 regions",121.676 μm
same,"Epidermis Thickness, Av. of three tissues","[2]; 0.1% Test Article, average over Tissue1-3 (untreated 80.264 μm)",117.561 μm
same,Average increase of epidermal thickness versus untreated tissues,[2]; 0.1% putrescine,over 46%
same,"Epidermal thickness, average","[2]; 0.1% putrescine basolaterally in culture medium, 10 random regions of H&E sections",117.561 μm
same,"Epidermal tissue thickness, visual (Cytokeratin 10 / desmoplakin-1 immunostaining)","[2]; after 4 days, 0.1% Putrescine",visually appear thicker than the untreated control tissues
same,Tissue morphology,"[2]; day 4, 0.1% Putrescine",consistent with healthy tissue
